Measured values published in a melting point compilation (Tetko et al.; mined from patent text by program, amines drawn as free bases though some values may be those of a salt).

First: O=[N+]([O-])c1ccc(Oc2c(Cl)cc(C(F)(F)F)cc2Cl)cc1S(=O)(=O)c1cc[nH]n1
Second: O=c1c(-c2cccc(C(F)(F)F)c2)c[nH]n1-c1cccc(Cl)c1
The melting point of the first is lower: 159 °C for the first, 182 to 184 °C for the second.

Compared with CCOP(=O)(OCC)OC(=Cc1nccn1C)c1ccccc1, CNC(=O)C(NC(=O)c1cn(C)nc1C(F)(F)F)C(CO)c1ccccc1 (configuration not stated) is higher in melting point: 111 to 114 °C for the first, 194 °C for the second.

CCCc1cc(-c2ccc(Cl)cc2)nc2c(C(=O)Nc3cccc(S(N)(=O)=O)c3)cnn12 and CS(=O)(=O)c1cccc(-c2ccc3cnc(Nc4ccc(C5CCN(CC(N)=O)CC5)cc4)nn23)c1 cannot be ordered by melting point: 252 to 254 °C for the first, 254 °C for the second.

Compared with O=C(O)c1ncccc1CCc1cccc(F)c1, O=C(O)COc1ccc(C(=O)c2cccc(F)c2)c(Cl)c1Cl is higher in melting point: 118 to 122 °C for the first, 166 to 168 °C for the second.

Compared with COc1cc2c(cc1OC)CC(N(CC(=O)O)C(=O)C(C)CSC(C)=O)C2 (configuration not stated), CCC1(C(=O)C=Cc2ccc(OC)c(OC)c2)CC1 is lower in melting point: 135 to 137 °C for the first, 63 to 65 °C for the second.

First: O=P(O)(O)CC(O)CNO (configuration not stated)
Second: CCC(C)CNNC(=O)c1cc(N)cc(C(=O)NNCC(C)CC)c1 (configuration not stated)
The melting point of the first is lower: 153 to 155 °C for the first, 162 to 163 °C for the second.

Compared with CC(C)(Cc1ccccc1)C(NC(=O)COc1ccccc1)Nc1c(Nc2cccnc2)c(=O)c1=O (configuration not stated), O=C(Oc1ccccc1)C(=O)Oc1ccc2c(c1)C(c1ccccc1)C(=O)O2 (configuration not stated) is lower in melting point: 249 to 250 °C for the first, 134 °C for the second.

Compared with O=[N+]([O-])c1ccc(CS(=O)(=O)CCO)cc1CS(=O)(=O)CCO, Cc1ccc(NCCN(C)C)c([N+](=O)[O-])c1 is lower in melting point: 211 to 212 °C for the first, 59 °C for the second.

First: N#Cc1ccc(C(Cc2ccc(C#N)cn2)Cn2cncn2)cc1 (configuration not stated)
Second: Cn1cnnc1C(N)(c1ccc(C#N)cc1)c1ccc2c(c1)c(-c1cccc(Cl)c1)nc1nnnn12 (configuration not stated)
The melting point of the first is lower: 98 °C for the first, 194 °C for the second.

First: c1cc(N2CCCCC2)ccc1OC12CCC(CC1)CC2
Second: Cc1ccc(C2CCN(C(=O)Nc3ccc4cc(CN5CCCCC5)ccc4c3)CC2)cc1
The melting point of the first is lower: 66 to 68 °C for the first, 227 to 228 °C for the second.

First: CCOC(OCC)c1cc(-n2c(=O)cc(C(F)(F)F)n(N)c2=O)ccc1Cl
Second: Cn1ncc(C(=O)Nc2ccc(F)cc2Cl)c1N
The melting point of the first is lower: 80 to 81 °C for the first, 176 to 177 °C for the second.

Compared with CC(C)(C)c1cc(Cl)c2c(c1)-c1ccccc1P(=O)(O)O2, COC(=O)c1c(-c2ccccc2Cl)c2cc(C)c(C)cc2n(C)c1=O is lower in melting point: 240 °C for the first, 202 to 203 °C for the second.

First: CN1CCC(c2c[nH]c3cnc(-n4cncn4)cc23)CC1
Second: Nc1nccc(N2CCc3ccccc32)n1
The melting point of the first is higher: 209 to 211 °C for the first, 177 to 179 °C for the second.

First: Cc1cccc(C(C)C)c1NC(=O)NC1(c2cccs2)CCCCC1
Second: COC(=O)C1(NC(=O)Cc2cc(-c3ccc(Cl)cc3)ccc2C)CCC(F)(F)CC1
The melting point of the first is higher: 230 to 232 °C for the first, 186 °C for the second.

First: COc1nc(-c2ccccc2)c(-c2ccc(=O)n(C(C)C)n2)nc1C#N
Second: Cn1c2cc(Cl)ccc2c2c(=O)[nH]c(-c3ccccc3)nc21
The melting point of the first is lower: 170 to 172 °C for the first, greater than 300 °C for the second.

First: O=C1CCc2cc(-n3ccnc3)ccc21
Second: Nc1cc(=O)[nH]c(=O)n1C1CCc2ccccc21 (configuration not stated)
The melting point of the first is lower: 148 to 150 °C for the first, greater than 295 °C for the second.

Compared with O=C(c1ccccc1)C1CCN1C(c1ccccc1)c1ccccc1 (configuration not stated), O=[N+]([O-])c1cc(CN2CCN(C(c3ccccc3)c3ccccc3)CC2)ccc1Cl is lower in melting point: 114 to 115 °C for the first, 102 °C for the second.

First: COC(=O)C1=C(S(N)(=O)=O)CCC1
Second: COC(=O)c1sc(OC)c(C)c1O
The melting point of the first is higher: 83 to 84 °C for the first, 63 to 65 °C for the second.

First: C#CCn1c2ccc(Br)cc2c2cc(Br)ccc21
Second: COC(=O)C(C)c1ccc2c(c1)Cc1cc([N+](=O)[O-])ccc1-2 (configuration not stated)
The melting point of the first is higher: 193 to 194 °C for the first, 105 to 107 °C for the second.

First: CC(=O)OC1CCC2(C)C(CCC3C2CCC2(C)C(C(C)=O)CCC32)C1 (configuration not stated)
Second: C=CC1CCC2(C)C(CCC3C4CCC(=O)C4(C)CCC32)C1 (configuration not stated)
The melting point of the first is higher: 141 to 142 °C for the first, 100 to 102 °C for the second.

Compared with O=C(O)CCCCC=Cc1cc(-c2ccccc2)c2ccccc2n1, CCCN(CCC)C(=O)C1Cc2ccccc2N1c1nc(-c2ccccc2)nc(C)c1C (configuration not stated) is higher in melting point: 152 to 154 °C for the first, 167 to 168 °C for the second.

First: CC(=O)c1c(-c2cccs2)[nH]c(-c2ccncc2)c1C
Second: CC(=O)c1c(-c2ccncc2)[nH]c(-c2ccncc2)c1C
The melting point of the first is lower: 231 to 232 °C for the first, 237 to 240 °C for the second.

Compared with c1ccc(CN2CCC3(CC2)OCCCO3)cc1, CC#CN1CCN(C(=O)c2ccccc2)CC1 is higher in melting point: less than 50 °C for the first, 94 to 95 °C for the second.

Compared with CC(=O)NC(C)c1ccc(CN2CCN(c3nccs3)CC2)cc1 (configuration not stated), COc1cc(Nc2c(C#N)cnc3cc(-c4ccc(CN5CCC(O)CC5)cc4)sc23)c(Cl)cc1Cl is higher in melting point: 136 to 137 °C for the first, 149 to 150 °C for the second.

Compared with COC(Cn1ncc(-c2ccc(S(C)(=O)=O)cc2)c(-c2ccc(F)cc2)c1=O)c1ccccc1 (configuration not stated), Cc1ccc(-c2nn(CCO)c(=O)c(-c3ccccc3)c2-c2ccc(C)cc2)cc1 is higher in melting point: 135 to 137 °C for the first, 192 to 194 °C for the second.

Compared with CNC(=O)C(CC1CCCCC1)NC(=O)Nc1n[nH]c(=S)s1 (configuration not stated), CS(=O)(=O)c1ccc(-c2cnn(-c3ccc(F)c(F)c3)c(=O)c2C2CCCCC2)cc1 is lower in melting point: 246 to 247 °C for the first, 80 to 83 °C for the second.

First: Cc1cc(C)cc(CC(=O)c2ccncc2)c1
Second: Cc1cc(C)cc(C(Cl)=NNc2ccccc2)c1
The melting point of the first is higher: 96 to 97 °C for the first, 47.5 to 48.5 °C for the second.

First: COc1ccc(-c2c(Cl)c(CN3C(=O)CCC3=O)nc3sc4c(c23)CC(C)(C)C(=O)C4(C)C)cc1
Second: COc1ccc(-c2ccc3nc(N)c4ncn(CC(C)C)c4c3c2)c(OC)c1
The melting point of the first is lower: 214 to 216 °C for the first, 223 to 227 °C for the second.

First: Cc1ccc(-c2cccc(/C=C/C(=O)Nc3ccc(-c4ccccn4)cc3)c2)cc1
Second: Cc1c(NC(=O)c2ccc(-c3cc4ccccc4s3)cc2)ccc2cc(CN3CCCC3)cnc12
The melting point of the first is higher: 220 to 222 °C for the first, 217 to 218 °C for the second.

First: C=CCc1cc2c(c(CC=C)c1O)NC(=O)CC2
Second: CC(C)SC1=N/C(=C\c2c[nH]c3ncc(Cl)cc23)C(=O)N1
The melting point of the first is lower: 86 to 88 °C for the first, 291 to 293 °C for the second.

First: CNc1cccc(-c2nc(=O)c3ccccc3s2)n1
Second: Cc1c(Br)cccc1NCc1c(C(=O)O)sc2ccccc12
The melting point of the first is higher: 207 to 208 °C for the first, 120 to 121 °C for the second.

Compared with CCc1cc(C)cc(CC)c1C1C(=O)CC(CC(C)S(=O)(=O)CC)CC1=O (configuration not stated), COC(=O)c1cc(C)cc(OC)c1C1=C(OC)C(=O)c2c(OC(C)=O)cccc2C1=O is higher in melting point: 62 to 65 °C for the first, 127 to 128 °C for the second.

First: O=C(N[C@H](Cc1cccc(OC(F)(F)C(F)F)c1)[C@@H](O)c1ccc(F)nc1)c1cccc2c1C=CCCC2 (racemic)
Second: O=C(Nc1ccccn1)c1c(C(F)(F)F)nc2c(C(F)(F)F)cccc2c1O
The melting point of the first is lower: 140 to 142 °C for the first, 236 °C for the second.

Compared with CC(=O)Nc1ccc(C(=O)O)c(OC(C)=O)c1, COc1cc(OC)nc(NC(=O)NS(=O)(=O)Oc2ccccc2-c2nnco2)n1 is lower in melting point: 191 to 193 °C for the first, 161 to 164 °C for the second.

Compared with Nc1nc(N)c2cc(S(=O)(=O)c3ccc4ccccc4c3)ccc2n1, COc1ccc([C@H](Sc2cc(Oc3ccccc3)ccc2N)[C@@H](O)C(=O)O)cc1 is lower in melting point: 300 to 302 °C for the first, 151 to 152 °C for the second.

Compared with CCCCCCCCCCCCCCCCCC(=O)Oc1ccc([N+](=O)[O-])cc1OC(=O)CCCCCCCCCCCCCCCCC, CC(=O)CCCCCCCCc1ccc(O)c(O)c1 is higher in melting point: 68 to 70 °C for the first, 74 to 76 °C for the second.

Compared with COc1ccc(CSc2nnc(-c3ccc4occ(-c5ccc(OC)cc5)c4c3)o2)cc1, COc1ccc(CCN2CCc3cc(OCc4ccccc4)c(OC)cc3C2)cc1 is lower in melting point: 162 to 163 °C for the first, 88 to 89 °C for the second.

First: Cc1cc(C2=NN(C(=O)C=CCC(=O)O)C(C)Cc3cc4c(cc32)OCO4)ccc1[N+](=O)[O-] (configuration not stated)
Second: Fc1cccc(OCc2nnc(-c3ccc4c(c3)CCO4)o2)c1
The melting point of the first is higher: 158 to 160 °C for the first, 91 to 93 °C for the second.

First: O=C(O)c1cc(F)c(F)c(I)c1F
Second: Cc1ccc(Oc2ccccc2-n2cc(C(=O)O)cn2)c(O)c1
The melting point of the first is lower: 122 to 124 °C for the first, 219 to 221 °C for the second.

First: COC(=O)C1=C(C)Nc2n[nH]cc2C1c1ccccc1Cl (configuration not stated)
Second: COCC(=O)Nc1c(C(=O)c2cccc(Cl)c2)[nH]c2cc(Cl)ccc12
The melting point of the first is higher: 235 °C for the first, 154 to 155 °C for the second.

First: CS(=O)(=O)c1ccc2cc[nH]c2c1
Second: S=c1cc(-c2ccccc2)c(S)n[nH]1
The melting point of the first is higher: 149 to 152 °C for the first, 146 to 148 °C for the second.

Compared with O=c1[nH]c2cc(Cl)ccc2n1C1CCN(Cc2ccnc(-c3ccc(Cl)cc3)c2)CC1, N#CCCNC(=O)c1cccc(-c2ccc3c(c2)C(c2ccc(Cl)cc2Cl)CCO3)c1 (configuration not stated) is lower in melting point: 186 to 188 °C for the first, 154 to 155 °C for the second.

First: N#CCC(O)(c1ccccc1C(F)(F)F)c1ccccc1C(F)(F)F
Second: O=C(O)/C=C/c1cn(-c2cc(C(F)(F)F)cc(C(F)(F)F)c2)nc1-c1cccc(Cl)c1
The melting point of the first is lower: 168 to 170 °C for the first, 217 to 221 °C for the second.

Compared with CCCOc1cc(C(=O)O)ccc1-c1ccc(-c2ccccc2)c(-c2ccc3c(c2)C(C)(C)CCC3(C)C)c1, O=C(O)[C@@H](CCN1C(=O)c2ccccc2C1=O)Oc1c(Br)cc(-c2c(Br)ccc3sc4ccccc4c23)cc1Br is lower in melting point: 216 to 218 °C for the first, 130 to 132 °C for the second.

Compared with CCCCc1c(C=O)cc(OC)c2ccccc12, CCOC(=O)c1ccc(OCCCCl)cc1 is lower in melting point: 51 to 52 °C for the first, 24 to 25 °C for the second.

Compared with ONCc1coc(-c2ccccc2)n1, Cc1nn2c(O)ccnc2c1-c1cc(-c2ccccc2)cs1 is higher in melting point: 59 to 61 °C for the first, 218 to 235 °C for the second.

Compared with CSC(=S)Nc1ccccc1N, O=C1/C(=C/c2ccccc2)C(Br)c2ccccc21 (configuration not stated) is higher in melting point: 114 °C for the first, 118 to 119 °C for the second.

First: CCCCNc1nc2c(C(=O)OCC)cnn2c2c1cnc1c2cnn1CC
Second: CCc1cccc(CNC(=O)c2nc3scc(COCc4ccc(C(=O)O)cc4)c3c(=O)[nH]2)c1
The melting point of the first is higher: 275 to 277 °C for the first, 240 to 242 °C for the second.

Compared with COc1cc(S(=O)(=O)N2CCNCC2)cc(OC)c1OC, COc1nccnc1C1(Cl)CN2CCC1CC2 (configuration not stated) is lower in melting point: 131 to 133 °C for the first, 59 to 60 °C for the second.

Compared with CSc1ccc(OC(C)c2ccnc3ncnn23)cc1 (configuration not stated), CSc1ccc(C2=C(c3ccc(F)cc3)CCC2)cc1 is lower in melting point: 84 to 86 °C for the first, 46 to 47 °C for the second.

First: CC(C)(C(=O)O)c1ccc(CCl)cc1
Second: CC(CNC(=S)Nc1ccc(N2CCCCC2)cc1)N(Cc1ccc(Cl)c(Cl)c1)c1ccc(Br)cn1 (configuration not stated)
The melting point of the first is lower: 121 to 122 °C for the first, 125 to 127 °C for the second.
